According to patent publication US20240216412A1, “OXIDIZED NICOTINAMIDE ADENINE DINUCLEOTIDE (NAD+) PRECURSOR TREATMENT FOR HEART FAILURE ALLEVIATION INDEPENDENT OF MITOCHONDRIAL PROTEIN DEACETYLATION” (University of Washington, priority 2022, published 2024):

Experiments:
Type in all cases: in vivo, mouse
[1] = system: chronic pressure overload (TAC) induced heart failure in WT and Sirt3Ko mice; assay: Survival, organ weight and histology (HW/TL, lung edema, fibrosis) after TAC
Description: Mice randomly received either NR (500 mg/kg body weight) (Canto et al., 2012) or vehicle saline daily for eight-weeks. Representative M-mode images for the echocardiography can be found in FIGS. 1C and 1D. Four weeks of chronic pressure overload caused similar declines in left ventricular fractional shortening (FS %) in mice randomized to NR or vehicle groups for either WT or Sirt3Ko (FIGS. 1E and 1F). […] Similar to NR treated WT, cardiac hypertrophy, left ventricular cavity dilation, and lung edema were less severe in Sirt3Ko TAO mice that received NR treatment (FIGS. 1B-1J). All echocardiography parameters can be found in Table 1 below.
Transverse aortic constriction. Male mice (3-4 months old) underwent transverse aortic constriction (TAC) or sham surgery. Briefly, mice were anesthetized with an IP injection of 130 mg/kg ketamine and 8.8 mg/kg xylazine in saline. Mice were intubated with 20 G cannula and ventilated 140 breaths per minute by small animal TOPO ventilator (Kent Scientific). The aortic arch was exposed via a left thoracotomy and by carefully separating the thymus. A constriction of the transverse aorta was generated by tying a 6-0 Ethilon ligature against a 27-gauge blunt needle around the aorta between the brachiocephalic and left common carotid arteries. Promptly the needle was removed and the chest and skin were closed by 5-0 polypropylene suture. The animal was removed from ventilation and kept on a heating blanket during recovery from anesthesia. SR buprenorphine (0.05 mg/kg) was administered subcutaneously for analgesia. Sham operated mice underwent all the same procedures as TAC mice excluding the constriction of the aorta. All mice were monitored every 12 h during the first 72 h post-surgery, followed by daily visits over the next 4 weeks.
Organ weight and histological assessment. Hearts from mice were harvested, rinsed briefly in 1×PBS, blotted dry, and weighed. Lungs from the same mice were harvested, weighed, then dried at 56 C. After 72 hours the lungs were weighed again. Heart weight (HW) and Lung weight (LW) was normalized to tibia length (TL) to assess changes in hypertrophic growth and lung edema, respectively. For histology, hearts were perfusion fixed with 10% neutral buffered formalin. Longitudinal sections of hearts were stained with Masson's Trichrome for assessment of fibrosis by the University of Washington Histology and Imaging Core.

cardiac mitochondria = assay: Isolated cardiac mitochondria respiration (oxygen electrode); details: both genotypes
Description: Mitochondrial Isolation from cardiac tissue. Hearts were excised from mice, the aortas and atria were removed. Heart tissues were rinsed briefly in ice-cold mitochondria isolation medium (MIM) (70 mM sucrose, 220 mM mannitol, 5 mM MOPS, 1 mM EDTA, 0.025% fatty acid-free BSA, pH 7.4 with 5M KOH) to remove residual blood. Tissues were minced on ice and resuspended in fresh MIM, followed by trypsin digestion (10 ug/ml) and incubated on ice for 10 min. Trypsin digestion was stopped by the addition of trypsin inhibitor (0.5 mg/ml) and additional BSA (1 mg/ml) to MIM. The tissue pellets were resuspended in fresh MIM containing 1 mg/ml BSA, and transferred to a Teflon-glass tube and homogenized on ice with a Teflon pestle. The homogenates were centrifuged for 10 min at 800×g at 4° C. The supernatants were collected and centrifuged for 10 min at 8,000×g at 4° C. The supernatant was discarded and the mitochondrial pellets were resuspended in MIM to wash. The resuspension was centrifuged for 10 min at 8,000×g at 4° C., and the supernatant discarded. The mitochondrial pellet was resuspended to a concentrated volume for protein quantification by BCA Assay (Pierce).
Mitochondrial respirations. Isolated mitochondria respiration experiments were performed in an Clark type oxygen electrode Oxytherm System (Hansatech Instruments) at 30C. Briefly, freshly isolated mitochondria were added to respiration buffer (125 mM KCl, 20 mM HEPES, 3 mM MgCl2, 400 μM EGTA, 5 mM KH2PO4, 0.2% BSA (fatty acid free), pH 7.2) and placed in the respiration chamber to measure baseline respiration (State 1). The change in oxygen levels following the immediate addition of substrates (pyruvate/malate (5 mM/2 mM) or palmitoylcarnitine/malate (50 μM/2 mM) (State 2) followed by the sequential addition of 2.5 mM ADP (State 3), […] Oligomycin (State 4p) and 1 μM FCCP (FCCP Max). Antimycin A (2.5 μM) was added last to measure the residual oxygen consumption not accounted for by the electron transfer chain and it was subtracted from the previous measurements.

[2] = system: fatty acid oxidation (acylcarnitines) in heart; assay: Cardiac acyl-carnitine profiling (LC/MS)
Description: Cardiac acyl-carnitines. Metabolites were extracted from frozen heart tissue (10 mg) by precipitating in 80:20% methanol:water following the addition of 1 ug/ml internal standard (C16 palmitoylcarnitine, d3, Cambridge Isotope Laboratories, Inc.). After centrifugation, the supernatant was transferred to LC/MS auto sampler vials (Thermo Fisher). The protein pellet was redissolved in 0.1 M NaOH and protein concentration measured for normalization.
Acyl-carnitines were analyzed using a Triple TOF—5600 (AB Sciex) series mass spectrometer in line with a Water Acquity I-class UPLC. Chromatographic separation was achieved using an Acquity UPLC BEH HILIC, 1.7 micron, 2.1×100 mm column (Waters) with a flow rate of 0.5 ml/min. Total run time was 22 minutes. The mobile phase was composed of two solvents: A=5 mM Ammonium Acetate in 95:5 acetonitrile:water and B=5 mM Ammonium Acetate in 50:50 acetonitrile:water using the following gradient.
Samples were analyzed in positive electrospray ionization (ESI+) with a mass range from 50-1000 Da. […] Additional acyl-carnitines were identified by their m/z value as compared to theoretical values determined by the molecular formula ±0.003 D. Peak areas intensities were normalized to protein concentration.

[3] = Sirt3Ko TAC mice, similar to NR treated WT

**Q.** With `NC(=O)c1ccc[n+]([C@@H]2O[C@H](CO)[C@@H](O)[C@H]2O)c1` [NR, Nicotinamide riboside chloride] as the compound, how does the “Fibrosis (Masson's trichrome)” value ([1]; Sirt3Ko TAC mice) read?
**A.** The value was “decreased fibrosis”.

**Q.** What about the Cardiac hypertrophy [1, 3] of the same compound?
**A.** The Cardiac hypertrophy was “less severe”.

**Q.** What about the Lung edema [1, 3] of the same compound?
**A.** Its Lung edema is “less severe”.

**Q.** What about the “Mortality (Kaplan-Meier survival curve analysis)” value ([1]; WT and Sirt3Ko TAC mice, NR vs vehicle for eight weeks) of the same compound?
**A.** Its value is “no significant difference in mortality”.

**Q.** What about the “Mitochondrial respiratory function (State 3 respiration)” value (cardiac mitochondria; TAC, Complex I substrates) of the same compound?
**A.** The value was “improved”.

**Q.** What about the “Palmitoylcarnitine (PLC) supported State 3 respiration (ADP stimulated)” value (cardiac mitochondria; cardiac mitochondria from ISO treated hearts, NR) of the same compound?
**A.** Its value is “restored”.

**Q.** What about the “Tissue content of lipid derived acylcarnitines and hydroxy-acylcarnitines” value ([2]; NR treated TAC hearts, to level similar to WT-Sham) of the same compound?
**A.** The value was “increased”.

**Q.** And the “C16 (palmitoylcarnitine) levels” value ([2]; WT and Sirt3ko NR treated TAC hearts vs vehicle)?
**A.** Its value is “increased”.
